Measurements as given in patent US7135337B2, “Insect expression vectors” (priority 1997, dated 2006).

Key:
[1] = system: Hi5 cell line
[2] = system: C6/36 cell line
[3] = system: Sf9 cell line; details: TC-100 + 10% FBS, 27° C.
Procedure: (§1) The dipteran (D. melanogaster) cell lines Kc1 and SL2, and the lepidopteran cell lines Sf9 (S. frugiperda), Ld652Y (L. dispar) and Cf1 (Choristoneura fumeferana) were tested for sensitivity to Zeocin in order to establish whether Zeocin was toxic in standard culture conditions to cell lines from these disparate insect orders. Zeocin is thought to exert its toxic effects by binding to DNA to induce double strand breaks. Such strand cleavage is thought to inhibit growth by disruption of DNA replication, which in turn interferes with subsequent cell division. Accordingly, cells already committed to division would not be expected to be affected by Zeocin until the next round of DNA replication; it would therefore be expected that cells treated with Zeocin may divide once, but will be unable to undergo further mitotic divisions since their DNA will not be intact.
(§2) In accordance with the current understanding of Zeocin's mechanism of action, the minimal inhibitory concentration of Zeocin is described herein as the amount of antibiotic required to limit the culture to one doubling. Growth curves for the determination of inhibitory concentrations of Zeocin in the Kc1, SL2 and Sf9 cell lines (FIG. 4a) were performed in rotating 1.5 ml microcentrifuge tubes containing 1 ml of TC-100 complete medium (pH=6.2) with 10% fetal bovine serum (Life Technologies, Gaithersburg, Md., U.S.A.), 0.5–1.0×10^6 cells and varying concentrations of Zeocin (obtained from Invitrogen, San Diego, Calif.) at 27° C. Samples were removed daily, stained with 0.4% trypan blue and the number of viable cells determined in quadruplicate using a hemocytometer. The minimal inhibitory Zeocin concentrations affecting Ld652Y and Cf1 cell lines were determined by seeding approximately 5,000 cells in a total volume of 200 μl TC-100 complete medium +10% fetal bovine serum+Zeocin into wells of 96 well microtitre plates.

[4] = system: Kc1 cell line
Procedure: as §1, §2

[5] = system: Cf1 cell line; details: TC-100 + 10% FBS
Procedure: as §1, §2

[6] = system: Ld652Y cell line; details: Zeocin 10 μg/ml
Procedure: as §1, §2

[7] = system: SL2 cell line
Procedure: The dipteran (D. melanogaster) cell lines Kc1 and SL2, and the lepidopteran cell lines Sf9 (S. frugiperda), Ld652Y (L. dispar) and Cf1 (Choristoneura fumeferana) were tested for sensitivity to Zeocin in order to establish whether Zeocin was toxic in standard culture conditions to cell lines from these disparate insect orders. […] Accordingly, cells already committed to division would not be expected to be affected by Zeocin until the next round of DNA replication; it would therefore be expected that cells treated with Zeocin may divide once, but will be unable to undergo further mitotic divisions since their DNA will not be intact.
In accordance with the current understanding of Zeocin's mechanism of action, the minimal inhibitory concentration of Zeocin is described herein as the amount of antibiotic required to limit the culture to one doubling. […] Samples were removed daily, stained with 0.4% trypan blue and the number of viable cells determined in quadruplicate using a hemocytometer.

Cc1c(N)nc([C@H](CC(N)=O)NC[C@H](N)C(N)=O)nc1C(=O)N[C@H](C(=O)N[C@H](C)[C@@H](O)[C@H](C)C(=O)N[C@H](C(=O)NCCC1=N[C@@H](c2nc(C(=O)NCCCCN=C(N)N)cs2)CS1)[C@@H](C)O)[C@@H](O[C@@H]1O[C@@H](CO)[C@@H](O)[C@H](O)[C@@H]1O[C@H]1O[C@H](CO)[C@@H](O)[C@H](OC(N)=O)[C@@H]1O)c1cnc[nH]1 [Zeocin]
Zeocin concentration found to inhibit growth [1]: 800 µg/mL | Zeocin concentration found to inhibit growth [2]: 250 µg/mL | Zeocin concentration required to completely inhibit further cell division [3]: at least 250 μg/ml | Zeocin concentration that inhibited more than one round of cell division ([4]; TC-100 + 10% FBS, 27° C.): greater than 50 μg/ml | effect on growth rate ([4]; Zeocin 10 μg/ml): dramatic reductions in growth rates | Zeocin concentration required to completely inhibit further cell division [5]: at least 250 μg/ml | effect on growth rate [6]: dramatic reductions in growth rates | Zeocin concentration that inhibited more than one round of cell division ([7]; TC-100 + 10% FBS, 27° C.): > 75 mg/mL | effect on growth rate ([7]; Zeocin 10 μg/ml): dramatic reductions in growth rates
